Data reported in patent publication US10004732B2 (Novartis AG, priority 2014, dated 2018).
pIC50: −log10 of the molar value. Read-outs that look alike come from different tables or passages of the source.

Columns and labels:
PI 3-kinase alpha [1] = molecular target: T1, PI 3-kinase alpha (Homo sapiens, UniProt P42336); experiment: Kinase Glo Luminescent Kinase Assay (Kglo), assay A; format: biochemical; conditions: read-out: Assay A PI3Kα IC50
Target sequence in this assay (P42336 whole entry): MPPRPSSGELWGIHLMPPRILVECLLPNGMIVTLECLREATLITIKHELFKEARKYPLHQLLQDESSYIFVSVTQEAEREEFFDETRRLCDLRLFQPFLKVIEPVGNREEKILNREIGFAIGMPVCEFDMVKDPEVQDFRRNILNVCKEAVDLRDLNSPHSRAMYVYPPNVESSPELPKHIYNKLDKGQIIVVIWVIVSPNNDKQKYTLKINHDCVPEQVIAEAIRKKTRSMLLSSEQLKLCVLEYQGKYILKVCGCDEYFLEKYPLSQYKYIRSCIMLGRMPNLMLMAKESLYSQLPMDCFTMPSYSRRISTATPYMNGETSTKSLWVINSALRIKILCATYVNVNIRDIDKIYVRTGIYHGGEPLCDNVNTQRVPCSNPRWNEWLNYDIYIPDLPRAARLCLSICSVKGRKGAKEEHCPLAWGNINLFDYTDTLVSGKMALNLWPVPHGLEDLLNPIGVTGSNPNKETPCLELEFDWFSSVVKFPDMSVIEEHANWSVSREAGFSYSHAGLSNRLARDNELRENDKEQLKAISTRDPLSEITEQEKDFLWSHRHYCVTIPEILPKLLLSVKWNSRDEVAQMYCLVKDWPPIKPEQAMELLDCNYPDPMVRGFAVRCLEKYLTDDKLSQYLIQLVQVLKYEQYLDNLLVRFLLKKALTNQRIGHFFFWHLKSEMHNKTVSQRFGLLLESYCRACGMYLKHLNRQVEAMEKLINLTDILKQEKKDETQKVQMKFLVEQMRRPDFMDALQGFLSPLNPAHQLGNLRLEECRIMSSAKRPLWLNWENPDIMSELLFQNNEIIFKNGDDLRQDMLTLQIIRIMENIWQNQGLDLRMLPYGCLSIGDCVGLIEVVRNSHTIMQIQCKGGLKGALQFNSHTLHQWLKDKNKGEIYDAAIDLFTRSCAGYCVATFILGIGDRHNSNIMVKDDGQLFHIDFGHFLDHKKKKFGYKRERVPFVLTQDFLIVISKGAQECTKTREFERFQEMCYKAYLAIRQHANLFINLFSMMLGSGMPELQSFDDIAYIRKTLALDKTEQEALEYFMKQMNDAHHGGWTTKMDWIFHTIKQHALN

PI 3-kinase beta [2] = molecular target: T2, PI 3-kinase beta (Homo sapiens, UniProt P42338); experiment: Kinase Glo Luminescent Kinase Assay (Kglo), assay B; format: biochemical; conditions: read-out: Assay B PI3Kβ IC50
Target sequence in this assay (P42338 whole entry): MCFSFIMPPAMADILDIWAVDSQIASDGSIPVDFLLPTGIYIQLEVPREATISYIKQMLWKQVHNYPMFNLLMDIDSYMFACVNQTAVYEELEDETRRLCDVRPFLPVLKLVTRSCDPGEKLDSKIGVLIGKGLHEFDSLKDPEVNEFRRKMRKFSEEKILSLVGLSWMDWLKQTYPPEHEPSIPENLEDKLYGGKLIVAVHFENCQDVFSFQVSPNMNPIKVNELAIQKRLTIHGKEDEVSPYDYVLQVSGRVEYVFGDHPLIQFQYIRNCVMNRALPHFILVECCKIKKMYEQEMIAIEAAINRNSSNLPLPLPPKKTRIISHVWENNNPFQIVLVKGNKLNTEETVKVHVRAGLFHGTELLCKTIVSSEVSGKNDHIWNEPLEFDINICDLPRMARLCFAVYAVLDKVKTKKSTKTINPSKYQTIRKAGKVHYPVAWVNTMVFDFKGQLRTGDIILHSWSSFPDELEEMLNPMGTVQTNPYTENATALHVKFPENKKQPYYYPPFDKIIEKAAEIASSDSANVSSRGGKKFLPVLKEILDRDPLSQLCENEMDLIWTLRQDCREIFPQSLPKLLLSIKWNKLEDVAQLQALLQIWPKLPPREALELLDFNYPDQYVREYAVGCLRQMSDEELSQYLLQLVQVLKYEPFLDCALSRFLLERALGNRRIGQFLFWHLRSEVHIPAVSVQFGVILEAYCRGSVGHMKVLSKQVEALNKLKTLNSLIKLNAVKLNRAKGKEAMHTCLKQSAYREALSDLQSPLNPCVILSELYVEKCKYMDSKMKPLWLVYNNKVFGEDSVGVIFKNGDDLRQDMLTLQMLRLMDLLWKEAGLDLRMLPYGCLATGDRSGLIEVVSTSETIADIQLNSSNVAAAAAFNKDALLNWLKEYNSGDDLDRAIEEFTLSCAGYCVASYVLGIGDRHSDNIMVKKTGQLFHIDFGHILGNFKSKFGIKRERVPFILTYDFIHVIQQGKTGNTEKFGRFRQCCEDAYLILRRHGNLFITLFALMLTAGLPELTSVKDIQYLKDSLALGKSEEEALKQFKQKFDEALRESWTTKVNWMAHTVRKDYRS
Target sequence in this assay (P27986 461-568 partner): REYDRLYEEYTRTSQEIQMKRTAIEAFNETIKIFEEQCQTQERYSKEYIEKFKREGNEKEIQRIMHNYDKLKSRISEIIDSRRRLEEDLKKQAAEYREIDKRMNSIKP

Vps34 = Vps34 (Homo sapiens, UniProt Q8NEB9); experiment: Kinase Glo Luminescent Kinase Assay (Kglo), assay C; format: biochemical; conditions: read-out: Assay C VPS34 IC50
Vps34, sequence (Q8NEB9 whole entry, species assumed): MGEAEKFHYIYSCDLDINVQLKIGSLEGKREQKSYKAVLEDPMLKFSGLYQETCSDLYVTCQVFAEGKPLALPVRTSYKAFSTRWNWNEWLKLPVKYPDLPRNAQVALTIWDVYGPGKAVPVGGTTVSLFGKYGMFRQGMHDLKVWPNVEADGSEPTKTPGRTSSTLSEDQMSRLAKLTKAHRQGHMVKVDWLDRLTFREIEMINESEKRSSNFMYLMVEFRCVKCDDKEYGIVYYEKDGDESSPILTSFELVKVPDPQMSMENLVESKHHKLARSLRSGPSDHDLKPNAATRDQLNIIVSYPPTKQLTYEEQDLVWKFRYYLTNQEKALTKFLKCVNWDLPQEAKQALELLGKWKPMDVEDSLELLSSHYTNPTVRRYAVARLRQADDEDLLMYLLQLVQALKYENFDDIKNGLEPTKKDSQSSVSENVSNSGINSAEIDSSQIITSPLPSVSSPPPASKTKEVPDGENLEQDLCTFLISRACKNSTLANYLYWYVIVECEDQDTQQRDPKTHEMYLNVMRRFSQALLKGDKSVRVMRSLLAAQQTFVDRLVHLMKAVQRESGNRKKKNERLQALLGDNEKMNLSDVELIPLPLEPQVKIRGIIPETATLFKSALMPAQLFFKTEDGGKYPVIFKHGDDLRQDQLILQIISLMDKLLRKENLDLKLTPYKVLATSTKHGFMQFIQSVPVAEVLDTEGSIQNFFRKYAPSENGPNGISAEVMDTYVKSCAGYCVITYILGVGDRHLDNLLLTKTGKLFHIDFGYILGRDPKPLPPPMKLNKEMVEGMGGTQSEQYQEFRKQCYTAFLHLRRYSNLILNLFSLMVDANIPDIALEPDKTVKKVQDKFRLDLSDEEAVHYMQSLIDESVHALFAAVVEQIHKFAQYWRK
Method: Kinase Glo Luminescent Kinase Assay (Kglo) for Pb 3-Kinase Alpha (A), Pb 3-Kinase Beta (B), Vps34 (C), Pb 4-Kinase Beta (D)
The Kinase Glo Luminescent Kinase Assay (Promega, Madison/Wis., USA) is a homogeneous HTS method of measuring kinase activity by quantifying the amount of ATP remaining in solution following a kinase reaction.
L-α-phosphatidylinositol (PI), provided as 10 mg/ml solution in methanol, was transferred into a glass tube and dried under a nitrogen beam. It was then resuspended in 3% OctylGlucoside (1-0-n-octyl-beta-D-glucopyranoside) by vortexing and stored at 4° C. 5 μL of a mix of PI/OctylGlucoside with the PI 3-kinase alpha and PI 3-kinase beta subtypes, or Vps34 or PI 4-kinase beta were added. Kinase reactions were started by the addition of 5 μl of an ATP-mix containing in a final volume 10 μL 10 mM TRIS-HCl pH 7.5, 3 mM MgCl2, 50 mM NaCl, 0.05% CHAPS, 1 mM DTT and 1 μM ATP at room temperature.
All fits were performed with the program XLfit4 (ID Business Solutions, Guildford, UK).

PI 4-kinase beta = PI 4-kinase beta (Homo sapiens, UniProt Q9UBF8); experiment: Kinase Glo Luminescent Kinase Assay (Kglo), assay D; format: biochemical; conditions: read-out: Assay D PI4Kβ IC50
PI 3-kinase gamma = PI 3-kinase gamma (Homo sapiens, UniProt P48736); experiment: TR-FRET Adapta assay, assay E; format: biochemical; conditions: read-out: Assay E PI3Kγ IC50
PI 3-kinase gamma, sequence (P48736 whole entry): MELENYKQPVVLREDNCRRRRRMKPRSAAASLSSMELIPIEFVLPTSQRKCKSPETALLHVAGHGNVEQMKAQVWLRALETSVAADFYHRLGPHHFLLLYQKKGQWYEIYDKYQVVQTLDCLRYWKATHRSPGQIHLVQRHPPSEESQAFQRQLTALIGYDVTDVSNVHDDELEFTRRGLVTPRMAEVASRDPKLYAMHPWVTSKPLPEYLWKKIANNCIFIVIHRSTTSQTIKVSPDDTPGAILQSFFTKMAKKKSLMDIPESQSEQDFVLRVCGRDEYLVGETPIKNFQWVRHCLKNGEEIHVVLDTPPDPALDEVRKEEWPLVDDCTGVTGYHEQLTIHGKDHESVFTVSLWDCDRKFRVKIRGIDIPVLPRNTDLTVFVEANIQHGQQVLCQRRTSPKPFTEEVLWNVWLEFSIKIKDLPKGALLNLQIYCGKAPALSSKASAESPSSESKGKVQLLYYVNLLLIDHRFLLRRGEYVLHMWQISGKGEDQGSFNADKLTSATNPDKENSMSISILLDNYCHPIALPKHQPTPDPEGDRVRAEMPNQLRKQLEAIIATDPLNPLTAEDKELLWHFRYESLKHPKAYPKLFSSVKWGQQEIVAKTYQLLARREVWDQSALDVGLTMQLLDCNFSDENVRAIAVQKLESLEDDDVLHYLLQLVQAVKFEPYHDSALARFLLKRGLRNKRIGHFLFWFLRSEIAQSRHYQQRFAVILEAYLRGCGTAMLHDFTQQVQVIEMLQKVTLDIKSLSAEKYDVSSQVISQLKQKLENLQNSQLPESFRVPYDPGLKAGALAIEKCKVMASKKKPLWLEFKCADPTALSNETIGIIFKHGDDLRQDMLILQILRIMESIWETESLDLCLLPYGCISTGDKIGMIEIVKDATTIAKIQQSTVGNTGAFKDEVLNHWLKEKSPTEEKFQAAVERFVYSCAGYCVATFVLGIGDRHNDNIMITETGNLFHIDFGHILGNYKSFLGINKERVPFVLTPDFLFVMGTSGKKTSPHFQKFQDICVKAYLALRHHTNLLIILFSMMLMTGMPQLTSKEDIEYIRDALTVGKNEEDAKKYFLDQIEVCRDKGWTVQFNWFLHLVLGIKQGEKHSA

mTOR = mTOR (Homo sapiens, UniProt P42345); experiment: Lanthascreen kinase binding assay, assay G; conditions: read-out: Assay G mTOR IC50
Method: Lanthascreen™ Kinase Binding Assay for mTOR (G)
Binding of an inhibitor to the kinase competes for binding with the tracer, resulting in a loss of FRET.
50 nL of compound dilutions were dispensed onto white 384-well small volume polystyrene plate.

PI 3-kinase alpha [3] = molecular target: T1, PI 3-kinase alpha; experiment: Cellular assay H1, p-Akt (S473) in Rat-1 cells, Surefire format; format: cell-based; conditions: non-asterisked data: version H1 (Surefire format), Rat-1 cells; read-out: Assay H PI3Kα IC50
Target sequence in this assay (P42336 whole entry): as the sequence (P42336 whole entry) above
Target sequence in this assay (Q63787 whole entry partner): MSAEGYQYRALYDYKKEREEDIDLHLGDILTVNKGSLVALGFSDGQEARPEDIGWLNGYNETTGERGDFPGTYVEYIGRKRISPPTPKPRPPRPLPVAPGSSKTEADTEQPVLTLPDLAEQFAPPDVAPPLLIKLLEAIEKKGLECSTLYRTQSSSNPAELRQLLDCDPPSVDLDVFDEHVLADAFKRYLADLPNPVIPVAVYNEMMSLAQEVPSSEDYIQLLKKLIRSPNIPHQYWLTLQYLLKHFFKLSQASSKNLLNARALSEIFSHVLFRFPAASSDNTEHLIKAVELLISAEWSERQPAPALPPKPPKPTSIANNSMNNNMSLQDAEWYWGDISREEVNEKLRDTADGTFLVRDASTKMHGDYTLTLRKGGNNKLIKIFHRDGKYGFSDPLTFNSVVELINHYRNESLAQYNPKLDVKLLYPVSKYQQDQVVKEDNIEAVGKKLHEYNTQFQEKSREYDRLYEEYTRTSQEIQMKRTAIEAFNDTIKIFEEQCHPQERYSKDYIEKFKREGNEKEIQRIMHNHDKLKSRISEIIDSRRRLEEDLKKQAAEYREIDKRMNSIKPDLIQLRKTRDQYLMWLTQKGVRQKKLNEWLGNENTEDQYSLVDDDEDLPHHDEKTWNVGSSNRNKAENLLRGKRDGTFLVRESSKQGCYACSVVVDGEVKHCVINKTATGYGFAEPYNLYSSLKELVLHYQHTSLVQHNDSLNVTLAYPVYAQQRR

PI 3-kinase beta [4] = molecular target: T2, PI 3-kinase beta; experiment: Cellular assay I1, p-Akt (S473) in Rat-1 cells, Surefire format; format: cell-based; conditions: non-asterisked data: version I1 (Surefire format), Rat-1 cells; read-out: Assay I PI3Kβ IC50
Target sequence in this assay (P42338 whole entry): as the sequence (P42338 whole entry) above
Target sequence in this assay (Q63787 whole entry partner): as the sequence (Q63787 whole entry partner) above
From the text: Cellular Assays for PI 3-Kinase Alpha (H1), Beta (I1) and Delta (J1): Surefire Format
AlphaScreen (Amplified Luminescent Proximity Homogeneous Assay, ALPHA, Perkin Elmer) is a non-radioactive bead-based proximity assay technology to study biomolecular interactions in a homogenous microtiter plate format. The brand name SureFire denotes AlphaScreen assays that are adapted to quantify the phosphorylation of endogenous cellular proteins in cell lysates, by using matched antibody pairs, which consist of an anti-phospho-kinase and an anti-kinase antibody. The assay allows characterization of kinase signaling in cells as well as measurement of kinase inhibitor effects.
Using Rat-1 cells stably expressing myr-HA-tagged versions of the human PI3Kdelta, PI3Kalpha, or PI3Kbeta p110 catalytic subunit isoforms, the assay was developed as a two-plate protocol in a 384-well format.
For compound testing, the cells were seeded at a density of 4000 (Rat-1_PI3Kdelta), 7500 (Rat-1_PI3Kalpha), or 6200 (Rat-1_PI3Kbeta) cells in 20 μl complete growth medium into cell culture treated 384-well plates and were grown at 37° C./5% CO2/90% humidity for 24 h. Shortly before compound transfer, the complete medium was removed, 30 μl assay buffer (DMEM high glucose, 1×MEM NEAA, 10 mM HEPES, 2 mM L-glutamine, 0.1% (w/v) BSA) was added and 10 μl of the compound predilutions were transferred to the cells.

PI 3-kinase delta [5] = molecular target: T3, PI 3-kinase delta (Homo sapiens, UniProt O00329); experiment: Cellular assay J1, p-Akt (S473) in Rat-1 cells, Surefire format; format: cell-based; conditions: non-asterisked data: version J1 (Surefire format), Rat-1 cells; read-out: Assay J PI3Kδ IC50
[6] = tested on: IL-8-induced neutrophil shape change in human whole blood; experiment: Whole blood neutrophil shape change assay (L); format: cell-based; conditions: IL-8, human whole blood, read-out: Assay L WBSC IC50
PI 3-kinase delta [7] = molecular target: T3, PI 3-kinase delta; experiment: TR-FRET Adapta assay, assay F; conditions: for IC50: Assay F PI3Kδ IC50 (μM); for pIC50: read-out: Assay F PI3Kδ IC50
Method: TR-FRET Adapta Assay for PI 3-Kinase Gamma (E), PI 3-Kinase Delta (F)
The TR-FRET Adapta™ Universal Kinase Assay Kit was purchased from Invitrogen Corporation (Carlsbad/CA, USA) (Cat. No. PV5099).
PIK3CD substrate phosphatidylinositol (PI) was obtained from Invitrogen (vesicules consisting of 2 mM phosphatidylinositol (PI) in 50 mM HEPES pH7.5; Cat. No. PV5371). PIK3CG substrate phosphatidylinositol-4,5-bisphosphate (PIP(4,5)2 was obtained from Invitrogen (PIP2:PS large unilamellar vesicules consisting of 1 mM PIP2: 19 mM PS in 50 mM HEPES pH7.5, 3 mM MgCl2, 1 mM EGTA; Cat. No. PV5100).
Time-Resolved Fluorescence Resonance Energy Transfer (TR-FRET) is a technology based on energy transfer between two adjacent dyes, from an excited electron in one dye (the donor) to an electron of an adjacent dye (the acceptor) through resonance, then released as a photon. This energy transfer is detected by an increase in the fluorescence emission of the acceptor, and a decrease in the fluorescence emission of the donor. TR-FRET assays for protein kinases use a long-lifetime lanthanide Terbium or Europium chelates as the donor species which overcome interference from compound autofluorescence or light scatter from precipitated compounds, by introducing a delay after excitation by a flashlamp excitation source. Results are often expressed as a ratio of the intensities of the acceptor and donor fluorophores. The ratiometric nature of such a value corrects for differences in assay volumes between wells, as well as corrects for quenching effects due to colored compounds. The Adapta™ assay can be divided into two phases: a kinase reaction phase and an ADP detection phase. In the kinase reaction phase, all kinase reaction components are added to the well and the reaction is allowed to incubate for a set period of time specific for each kinase. […] In the presence of an inhibitor, the amount of ADP formed by the kinase reaction is reduced, and the resulting intact antibody-tracer interaction maintains a high TR-FRET signal.
50 nL of compound dilutions were dispensed onto white 384-well small volume polystyrene plate. Then 5 μL of either PI 3-kinase gamma or PI 3-kinase delta and lipid substrate (PI or PIP2:PS) followed by 5 μL of ATP (final assay volume 10 μL) are incubated at RT. The standard reaction buffer for the Adapta™ TR-FRET assay contained 10 mM Tris-HCl pH 7.5, 3 mM MgCl2, 50 mM NaCl, 1 mM DTT, 0.05% CHAPS 3-[(3-cholamidopropyl)dimethylammonio]-1-propanesulfonate).
Data are analyzed using Excel fit software or Graphpad Prism. IC50 values were derived by fitting a sigmoidal dose-response curve to a plot of assay readout over inhibitor concentration. All fits were performed with the program XLfit4 (ID Business Solutions, Guildford, UK). […] All fits were performed with the program XLfit4 (ID Business Solutions, Guildford, UK).

[8] = Microsomal clearance assay (M); conditions: intrinsic clearance in rat liver microsomes
Method: The experiments were performed in 96-well glass plates at 37° C. on an automated Tecan EVO platform. Test compounds at a concentration of 10 mM in pure DMSO were diluted 1:1000 in water to 10 μM. […] Reactions were initiated by the addition of 150 μL of a cofactor solution containing 2 mM NADPH.

Row | Structure (SMILES) | pIC50 (PI 3-kinase alpha [1]) | pIC50 (PI 3-kinase beta [2]) | pIC50 (Vps34) | pIC50 (PI 4-kinase beta) | pIC50 (PI 3-kinase gamma) | pIC50 (mTOR) | pIC50 (PI 3-kinase alpha [3]) | pIC50 (PI 3-kinase beta [4]) | pIC50 (PI 3-kinase delta [5]) | pIC50 [6] | IC50 (PI 3-kinase delta [7]) [µM] | Assay M RLM CI(int) [8] [µL/min/mg] | pIC50 ([6]; Homo sapiens, Neutrophil) | pIC50 (PI 3-kinase delta [7])
1 | Cc1ccc(S(=O)(=O)NC2CC3(CC(O)C3)C2)cc1-c1cnc(N)c(-n2cncn2)n1 (single isomer, unassigned) [Example 70a, (S)-3-(5-Amino-6-(1H-1,2,4-triazol-1-yl)pyrazin-2-yl)-N-(6-hydroxyspiro[3.3]heptan-2-yl)-4-methylbenzenesulfonamide or (R)-3-(5-Amino-6-(1H-1,2,4-triazol-1-yl)pyrazin-2-yl)-N-(6-hydroxyspiro[3.3]heptan-2-yl)-4-methylbenzenesulfonamide] | 6.96 | 6.12 | < 5.00 | 5.34 | 7.60 | 5.70 | 5.72 | 5.58 | 5.85 | 6.73 | 0.29 | 58 |  | 
2 | Cc1ccc(S(=O)(=O)NC2CC3(CC(O)C3)C2)cc1-c1cnc(N)c(-n2cncn2)n1 (single isomer, unassigned) [Example 70b, (S)-3-(5-Amino-6-(1H-1,2,4-triazol-1-yl)pyrazin-2-yl)-N-(6-hydroxyspiro[3.3]heptan-2-yl)-4-methylbenzenesulfonamide or (R)-3-(5-Amino-6-(1H-1,2,4-triazol-1-yl)pyrazin-2-yl)-N-(6-hydroxyspiro[3.3]heptan-2-yl)-4-methylbenzenesulfonamide] | 6.08 | 5.60 | < 5.00 | < 5.00 | 8.40 | 5.23 | 5.39 | < 5.00 | 5.40 | 6.16 | 1.1 | 57 |  | 
3 | CC(C)(O)CNS(=O)(=O)c1ccc(Cl)c(-c2cnc(N)c(-n3cncn3)n2)c1 [Example 37, 3-(5-Amino-6-(1H-1,2,4-triazol-1-yl)pyrazin-2-yl)-4-chloro-N-(2-hydroxy-2-methylpropyl)benzenesulfonamide] | 6.00 | 5.46 | < 5.04 | 5.46 | 7.08 | 5.23 | 5.10 | 5.72 | 5.23 |  |  | 33 | 5.81 | 6.14
4 | CC(C)(O)CCNS(=O)(=O)c1ccc(Cl)c(-c2cnc(N)c(-n3cncn3)n2)c1 [Example 38, 3-(5-Amino-6-(1H-1,2,4-triazol-1-yl)pyrazin-2-yl)-4-chloro-N-(3-hydroxy-3-methylbutyl)benzenesulfonamide] | 6.04 | 5.46 | < 5.04 | 5.38 | 7.60 | 5.08 | 5.52 | 5.68 | 5.63 |  |  | 89 | 5.47 | 6.85
5 | Cc1ccc(S(=O)(=O)N[C@H]2CC[C@H](O)CC2)cc1-c1cnc(N)c(-c2cncnc2)n1 [Example 59, Trans-3-(5-Amino-6-(pyrimidin-5-yl)pyrazin-2-yl)-N-(-4-hydroxycyclohexyl)-4-methylbenzenesulfonamide] | 6.04 | 5.28 | < 5.04 | < 5.04 | 6.98 | 5.22 | 5.07 |  | 5.19 |  |  |  | 6.10 | 6.39
6 | Cc1ccc(S(=O)(=O)N[C@H]2C[C@H](O)C2)cc1-c1cnc(N)c(-n2cncn2)n1 [Example 71a, 3-(5-Amino-6-(1H-1,2,4-triazol-1-yl)pyrazin-2-yl)-N-((1r,3r)-3-hydroxycyclobutyl)-4-methylbenzenesulfonamide] | 6.48 | 5.96 | < 5.00 | 5.55 | 7.89 | < 5.00 | 5.51 | 5.10 | 5.44 | 6.12 |  | 18 |  | 6.00
7 | Cc1ccc(S(=O)(=O)N[C@H]2C[C@@H](O)C2)cc1-c1cnc(N)c(-n2cncn2)n1 [Example 71b, 3-(5-amino-6-(1H-1,2,4-triazol-1-yl)pyrazin-2-yl)-N-((1s,3s)-3-hydroxycyclobutyl)-4-methylbenzenesulfonamide] | 6.12 | 5.72 | < 5.00 | 5.34 | 7.68 | < 5.00 | 5.16 | < 5.00 | 5.23 | 5.79 |  | 26 |  | 5.89
8 | CCn1ncc(-c2nc(-c3cc(S(=O)(=O)NCC(C)(C)O)ccc3C)cnc2N)n1 [Example 82, 3-(5-Amino-6-(2-ethyl-2H-1,2,3-triazol-4-yl)pyrazin-2-yl)-N-(2-hydroxy-2-methylpropyl)-4-methylbenzenesulfonamide] | 6.74 | 5.26 | < 5.00 | < 5.00 | 7.39 | < 5.00 | 6.07 | 5.53 | 6.21 |  |  | 25 | 6.08 | 6.27
9 | Cc1ccc(S(=O)(=O)NCC(C)(C)O)cc1-c1cnc(N)c(-c2cnn(CC(F)(F)F)n2)n1 [Example 84, 3-(5-Amino-6-(2-(2,2,2-trifluoroethyl)-2H-1,2,3-triazol-4-yl)pyrazin-2-yl)-N-(2-hydroxy-2-methylpropyl)-4-methyl benzenesulfonamide] | 6.92 | 5.64 | < 5.00 | 5.15 | 7.38 | < 5.00 | 6.35 | < 5.52 | 6.36 |  |  | 64 | 6.00 | 6.68
10 | Cc1ccc(S(=O)(=O)NC[C@H]2C[C@@H](O)C2)cc1-c1cnc(N)c(-c2nc(C3CC3)no2)n1 [Example 94, 3-(5-Amino-6-(3-cyclopropyl-1,2,4-oxadiazol-5-yl)pyrazin-2-yl)-N-(((1s,3s)-3-hydroxycyclobutyl)methyl)-4-methylbenzenesulfonamide] | 5.77 | < 5.04 | < 5.04 | < 5.04 | 7.85 | 5.05 | 5.53 | 5.05 | 5.68 |  |  |  | 5.42 | 6.24
11 | Cc1ccc(S(=O)(=O)NCC(C)(C)O)cc1-c1cnc(N)c(-n2cnc(C3CC3)n2)n1 [Example 109, 3-(5-Amino-6-(3-cyclopropyl-1H-1,2,4-triazol-1-yl)pyrazin-2-yl)-N-(2-hydroxy-2-methylpropyl)-4-methyl benzenesulfonamide] | 6.36 | 5.52 | < 5.00 | 5.07 | 7.55 |  | 5.58 | < 5.00 | 5.72 |  |  | <3.4 | 6.03 | 6.16
12 | CC(C)(O)CNS(=O)(=O)c1cccc(-c2cnc(N)c(-n3cncn3)n2)c1 [Example 123, 3-(5-Amino-6-(1H-1,2,4-triazol-1-yl)pyrazin-2-yl)-N-(2-hydroxy-2-methylpropyl)benzenesulfonamide] | 5.54 | 5.26 | < 5.00 | 5.60 | 5.68 | 5.05 | < 5.00 | < 5.00 | 5.44 |  |  | 62 | 4.07 | 5.33
13 | Cc1ccc(S(=O)(=O)N2CCCC(F)(F)C2)cc1-c1cnc(N)c(-n2cncn2)n1 [Example 127.1] | 6.54 | 5.92 | < 5.00 | 5.82 | 7.96 | 5.96 | 5.80 | < 5.00 | 5.94 |  |  | 907 | 5.61 | 6.25
14 | Cc1ccc(S(=O)(=O)NCCC(C)(C)O)cc1-c1cnc(N)c(-c2nc(C3CC3)no2)n1 [Example 143, 3-(5-Amino-6-(3-cyclopropyl-1,2,4-oxadiazol-5-yl)pyrazin-2-yl)-N-(3-hydroxy-3-methylbutyl)-4-methylbenzenesulfonamide] |  |  | < 5.04 | < 5.04 |  | 5.66 | 5.63 | 5.22 | 6.00 |  |  | 134 | 5.77 | 
